{"source": "patent US8933037B2", "about": "“Methods involving PDGFRBETA inhibitors” (Medizinische Universitat Wien, priority 2009, dated 2015)", "key": {"417 cells": {"tested_on": "417 cells", "assay": "Alamar Blue assay (apoptosis), 417 cells", "assay_type": "cell-based, mouse", "experimental": "(§1) Apoptosis rates were measured by Alamar Blue assays. The active ingredient of Alamar Blue is resazurin, a non-fluorescent dark blue indicator dye. It is able to permeate cells and is converted to resorufin, a fluorescent, bright red dye, in a reduction reaction by living (metabolically active) cells. The produced fluorescence is proportional to the number of metabolically active cells.\n(§2) We incubated SR-786 and 417 cells treated with 0-20 μM imatinib with Alamar Blue for one hour at 37 degrees Celsius."}, "SR-786 cells": {"tested_on": "SR-786 cells", "assay": "Alamar Blue assay (apoptosis), SR-786 cells", "assay_type": "cell-based, human", "experimental": "as §1, §2"}, "[1]": {"tested_on": "human ALK positive ALCL cell lines", "details": "cited from earlier work"}, "NPM-ALK": {"target": "T1, NPM-ALK (Homo sapiens, UniProt Q9UM73)", "T1 construct": "the other entry of the earlier key: NPM1 (P06748, Nucleophosmin)", "T1 sequence (Q9UM73 with tags, fused parts or gaps)": "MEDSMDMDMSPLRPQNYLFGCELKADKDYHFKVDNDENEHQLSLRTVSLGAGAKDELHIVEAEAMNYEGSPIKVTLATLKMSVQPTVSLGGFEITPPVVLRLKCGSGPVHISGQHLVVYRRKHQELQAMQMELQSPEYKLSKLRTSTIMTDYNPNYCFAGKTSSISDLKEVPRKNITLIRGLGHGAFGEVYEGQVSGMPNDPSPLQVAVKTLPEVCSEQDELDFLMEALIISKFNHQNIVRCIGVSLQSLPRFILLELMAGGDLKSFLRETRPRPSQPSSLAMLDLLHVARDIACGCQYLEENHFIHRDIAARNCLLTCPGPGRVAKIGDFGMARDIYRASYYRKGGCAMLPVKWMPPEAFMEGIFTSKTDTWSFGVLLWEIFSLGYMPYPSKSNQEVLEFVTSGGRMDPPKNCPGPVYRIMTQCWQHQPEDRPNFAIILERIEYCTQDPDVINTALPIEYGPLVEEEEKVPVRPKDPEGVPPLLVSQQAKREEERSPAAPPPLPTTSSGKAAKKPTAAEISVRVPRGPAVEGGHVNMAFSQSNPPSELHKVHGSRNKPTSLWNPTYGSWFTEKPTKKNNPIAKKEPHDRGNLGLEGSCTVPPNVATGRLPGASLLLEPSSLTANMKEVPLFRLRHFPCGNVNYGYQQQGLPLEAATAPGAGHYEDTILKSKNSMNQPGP", "details": "cited from earlier work"}, "[2]": {"tested_on": "murine NPM-ALK and PDGFRB positive cell line 417", "assay": "Cell number after three days culture with inhibitor, cell line 417", "details": "different concentrations, three days in RPMI medium"}, "Karpas-299 lymphomas": {"tested_on": "Karpas-299 lymphomas", "details": "cited from earlier work"}, "CD30": {"tested_on": "CD30", "details": "cited from earlier work"}, "[3]": {"tested_on": "murine NPM-ALK positive cell line CD4-417 tumors", "assay": "Murine xenograft model, CD4-417 cells in flank of SCID mice"}, "[4]": {"tested_on": "human NPM-ALK positive and PDGFRB negative cell line SR-786", "assay": "Cell number after three days culture with inhibitor, cell line SR-786", "details": "different concentrations, three days in RPMI medium"}, "HD and ALCL": {"tested_on": "HD and ALCL", "details": "cited from earlier work"}, "human ACLC/HD-cell lines": {"tested_on": "human ACLC/HD-cell lines", "details": "cited from earlier work"}}, "note": "“Also recorded” adds a separate entry of the source."}
{"smiles": "Cc1ccc(NC(=O)c2ccc(CN3CCN(C)CC3)cc2)cc1Nc1nccc(-c2cccnc2)n1", "note": "[imatinib, 4-[(4-methylpiperazin-1-yl)methyl]-N-[4-methyl-3-[(4-pyridin-3-ylpyrimidin-2-yl)amino]phenyl]benzamide]", "values": [{"measurement": "conversion of resazurin to resorufin, 417 cells at 0-10 μM", "setting": "417 cells; 0-10 μM, Alamar Blue one hour at 37 degrees Celsius", "result": "responded similar to SR-786 cells"}, {"measurement": "conversion of resazurin to resorufin (color change), 417 cells at 20 μM", "setting": "417 cells; 20 μM, Alamar Blue one hour at 37 degrees Celsius", "result": "not able to induce the color change"}, {"measurement": "apoptosis by Alamar Blue, 417 cells at 20 μM", "setting": "417 cells; 20 μM, three days after treatment", "result": "strongly increased; also recorded: high apoptosis"}, {"measurement": "apoptosis by Alamar Blue, 417 cells, dose dependence", "setting": "417 cells; in vitro, 0-20 μM", "result": "increased apoptosis rates; also recorded: dose dependent apoptosis"}, {"measurement": "conversion of resazurin to resorufin, SR-786 cells", "setting": "SR-786 cells; 0-20 μM, Alamar Blue one hour at 37 degrees Celsius", "result": "comparable rate, regardless of imatinib concentrations"}, {"measurement": "apoptosis by Alamar Blue, SR-786 cells", "setting": "SR-786 cells; up to 20 μM, three days", "result": "unaffected"}, {"measurement": "effect on ALCL cell lines", "setting": "[1]", "result": "unable to show effects"}, {"measurement": "binding to ALK", "setting": "NPM-ALK", "result": "unable to bind ALK"}, {"measurement": "sensitivity of NPM-ALK to imatinib treatment", "setting": "NPM-ALK", "result": "insensitive"}, {"measurement": "cell number (antiproliferative effect), cell line 417", "setting": "[2]", "result": "increasingly impaired; also recorded: strongly react; also recorded: reduced cell numbers; also recorded: dose dependent reduction in cell number"}]}
{"smiles": "COc1cc(N2CCC(N3CCN(C)CC3)CC2)ccc1Nc1ncc(Cl)c(Nc2ccccc2S(=O)(=O)C(C)C)n1", "note": "[NVP-TAE684]", "values": [{"measurement": "established Karpas-299 lymphomas in vivo", "setting": "Karpas-299 lymphomas", "result": "induced regression"}, {"measurement": "lymphomagenesis in two independent models of ALK-positive ALCL", "setting": "Karpas-299 lymphomas; in vivo", "result": "suppress lymphomagenesis"}, {"measurement": "CD30 expression", "setting": "CD30", "result": "induced down-regulation"}]}
{"smiles": "Cc1cn(-c2cc(NC(=O)c3ccc(C)c(Nc4nccc(-c5cccnc5)n4)c3)cc(C(F)(F)F)c2)cn1", "note": "[nilotinib, 4-methyl-N-[3-(4-methyl-1H-imidazol-1-yl)-5-(trifluoromethyl)phenyl]-3-[(4-pyridin-3-ylpyrimidin-2-yl)amino]benzamide]", "values": [{"measurement": "tumor weight vs untreated control tumors", "setting": "[3]; after 6 days of treatment", "result": "drastically reduced"}, {"measurement": "tumor size reduction", "setting": "[3]; nilotinib treatment, xenografted mice", "result": "more than 59%"}, {"measurement": "cell number (antiproliferative effect), cell line 417", "setting": "[2]", "result": "strongly react; also recorded: dose dependent reduction in cell number"}, {"measurement": "cell number / proliferation rates, cell line SR-786", "setting": "[4]", "result": "remain unaffected"}]}
{"smiles": "CNC(=O)c1cc(Oc2ccc(NC(=O)Nc3ccc(Cl)c(C(F)(F)F)c3)cc2)ccn1", "note": "[sorafenib, 4-[4-[[4-chloro-3-(trifluoromethyl)phenyl]carbamoylamino]phenoxy]-N-methyl-pyridine-2-carboxamide]", "values": [{"measurement": "in vivo treatment of HD and ALCL", "setting": "HD and ALCL", "result": "not effective"}, {"measurement": "apoptosis in human ACLC/HD-cell lines", "setting": "human ACLC/HD-cell lines", "result": "able to induce apoptosis"}]}
